“Also recorded” adds a separate entry of the source.
Assays:
Type in all cases: cell-based
IKKβ(C179A) = target: T1, IKKβ(C179A) (Homo sapiens, UniProt O14920, C179A); assay: 2XNFκB-LUC reporter in HeLa cells with NIK and IKKβ(C179A); design: FLAG; made in house; conditions: luciferase at 24 hours, FIG. 6E
T1 sequence (O14920 1-756 C179A): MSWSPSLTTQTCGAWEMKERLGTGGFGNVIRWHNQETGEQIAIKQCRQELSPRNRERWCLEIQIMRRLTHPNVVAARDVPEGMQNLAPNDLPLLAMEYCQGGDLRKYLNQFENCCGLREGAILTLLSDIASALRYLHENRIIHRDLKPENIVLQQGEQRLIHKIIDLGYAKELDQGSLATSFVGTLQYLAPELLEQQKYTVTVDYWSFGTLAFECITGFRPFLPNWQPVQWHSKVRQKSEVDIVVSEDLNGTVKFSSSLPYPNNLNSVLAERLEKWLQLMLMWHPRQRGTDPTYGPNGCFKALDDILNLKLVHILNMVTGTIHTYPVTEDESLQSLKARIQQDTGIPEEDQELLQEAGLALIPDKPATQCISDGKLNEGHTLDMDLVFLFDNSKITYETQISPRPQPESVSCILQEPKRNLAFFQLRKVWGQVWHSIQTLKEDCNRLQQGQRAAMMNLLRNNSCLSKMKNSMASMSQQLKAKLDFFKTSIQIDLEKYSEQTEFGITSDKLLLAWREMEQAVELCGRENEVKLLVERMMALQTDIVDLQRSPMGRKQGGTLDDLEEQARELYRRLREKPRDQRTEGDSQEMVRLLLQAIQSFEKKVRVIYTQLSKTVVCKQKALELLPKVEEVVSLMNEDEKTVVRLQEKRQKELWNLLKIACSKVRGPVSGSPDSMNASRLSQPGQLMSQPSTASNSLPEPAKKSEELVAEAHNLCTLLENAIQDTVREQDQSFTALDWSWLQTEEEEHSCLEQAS
Protocol: Recombinant IKKβ(C179A) was also resistant to concentrations of 15dPGJ2 that were inhibitory to wild-type IKKβ (as shown in FIG. 6D), and also to PGA1. An NF-κB dependent transcriptional reporter (2XNFκB-LUC) was preincubated with expression vector encoding either wild-type IKKβ or IKKβ(C179A). A NIK expression vector was included to ensure maximal IKK activation. […] FIG. 6E provides the results for HeLa cells transiently transfected with a 2×NF-κB-LUC reporter, a NIK expression vector and expression vectors for wild type IKKβ or IKKβ(C179A). At 3 hours post-transfection, cells were treated with 15dPGJ2 and at 24 hours, the luciferase activities were determined for duplicate samples. In each case, the maximal activity achieved in the absence of inhibitor was given an arbitrary value of 100% and the other values were calculated relative to this one.

IKKα = target: T2, IKKα (Homo sapiens, UniProt O14920+O15111); assay: NIK-induced HA-tagged IKKα associated kinase activity in COS cells; conditions: PGA1 added immediately after or 18 hours after transfection
T2 construct: expressed in transfected cells; host or cells: COS
Protocol: (§1) Cells used in the experiments described herein were cultured in either RPMI 1640 (Jurkat cells) or DMEM (HeLa and COS cells), supplemented with 10% FBS and antibiotics. Cells were stimulated with either 25 ng/ml TPA, 20 ng/ml recombinant TNFα, or 10 ng/ml interleukin 1β (Sigma). PGA1, 15dPGJ2, T×B2, LTB4, AA and other PGs (Cayman) dissolved in ethanol were used as well, as known in the art (See e.g., Rossi et al., 94:746-750 [1997]). Controls received equal amounts of ethanol. Transfections were performed using Lipofectamine Plus (GIBCO) for HeLa and COS cells and DEAE-dextran (Sigma) for Jurkat cells. Xpress-tagged NIK, Xpress-tagged MEKK1, HA-tagged IKKα, and HA-tagged IKKβ were also used (See e.g., Zandi et al., Science 281:1360-1363 [1998]; and Delhase et al., Science 284:309-313 [1999]). COX2 and cPLA2 expression vectors were obtained from Dr. L. Feng (See also, Hirose et al., J. Am. Soc. Nephrol., 9:408-416 [1998]). PGD synthase was cloned from HT29 colon carcinoma cell line cDNA by PCR and subcloned into a pCDNA3 vector. […]
(§2) Cell lysates were incubated with anti-IKKα (Pharmingen), anti-HA (12CA5; Pharmingen), anti-JNK1 (333.8; Pharmingen), or anti-p38 (New England Biolabs) for 2 hours. […] Endogenous IKK, HA-tagged IKKα, endogenous JNK1, and p38 activities were determined with GST-1κBα(1-54), GST-c-Jun(1-79), and GST-ATF2 as substrates.

IKK = IKK (Homo sapiens, UniProt O14920+O15111); assay: Endogenous IKK activity (kinase assay) in Jurkat cells stimulated with TNFα or TPA; design: endogenous in cells
Protocol: as §1
as §2, with “substrates. […]” for “substrates.”

IKK, sequence (O14920 whole entry): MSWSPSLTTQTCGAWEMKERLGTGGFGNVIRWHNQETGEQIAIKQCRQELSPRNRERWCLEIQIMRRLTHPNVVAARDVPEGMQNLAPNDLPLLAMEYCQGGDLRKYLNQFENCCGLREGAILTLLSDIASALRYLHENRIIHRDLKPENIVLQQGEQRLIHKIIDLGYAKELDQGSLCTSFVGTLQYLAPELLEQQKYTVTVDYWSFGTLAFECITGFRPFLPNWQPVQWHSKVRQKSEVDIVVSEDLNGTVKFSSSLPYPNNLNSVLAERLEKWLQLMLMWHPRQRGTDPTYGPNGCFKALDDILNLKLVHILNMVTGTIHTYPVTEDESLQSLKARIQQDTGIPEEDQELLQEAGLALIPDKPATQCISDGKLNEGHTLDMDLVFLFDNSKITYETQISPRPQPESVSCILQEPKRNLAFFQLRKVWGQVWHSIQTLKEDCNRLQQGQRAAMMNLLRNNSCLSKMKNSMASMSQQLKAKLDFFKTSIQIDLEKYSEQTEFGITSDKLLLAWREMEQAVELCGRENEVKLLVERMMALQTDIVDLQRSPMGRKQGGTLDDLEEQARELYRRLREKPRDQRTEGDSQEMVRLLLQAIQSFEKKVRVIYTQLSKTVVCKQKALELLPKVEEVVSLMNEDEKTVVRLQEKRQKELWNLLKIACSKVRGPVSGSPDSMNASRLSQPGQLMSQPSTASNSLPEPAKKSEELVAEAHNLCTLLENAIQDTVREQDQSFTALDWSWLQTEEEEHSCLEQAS
IKK, sequence (O15111 whole entry): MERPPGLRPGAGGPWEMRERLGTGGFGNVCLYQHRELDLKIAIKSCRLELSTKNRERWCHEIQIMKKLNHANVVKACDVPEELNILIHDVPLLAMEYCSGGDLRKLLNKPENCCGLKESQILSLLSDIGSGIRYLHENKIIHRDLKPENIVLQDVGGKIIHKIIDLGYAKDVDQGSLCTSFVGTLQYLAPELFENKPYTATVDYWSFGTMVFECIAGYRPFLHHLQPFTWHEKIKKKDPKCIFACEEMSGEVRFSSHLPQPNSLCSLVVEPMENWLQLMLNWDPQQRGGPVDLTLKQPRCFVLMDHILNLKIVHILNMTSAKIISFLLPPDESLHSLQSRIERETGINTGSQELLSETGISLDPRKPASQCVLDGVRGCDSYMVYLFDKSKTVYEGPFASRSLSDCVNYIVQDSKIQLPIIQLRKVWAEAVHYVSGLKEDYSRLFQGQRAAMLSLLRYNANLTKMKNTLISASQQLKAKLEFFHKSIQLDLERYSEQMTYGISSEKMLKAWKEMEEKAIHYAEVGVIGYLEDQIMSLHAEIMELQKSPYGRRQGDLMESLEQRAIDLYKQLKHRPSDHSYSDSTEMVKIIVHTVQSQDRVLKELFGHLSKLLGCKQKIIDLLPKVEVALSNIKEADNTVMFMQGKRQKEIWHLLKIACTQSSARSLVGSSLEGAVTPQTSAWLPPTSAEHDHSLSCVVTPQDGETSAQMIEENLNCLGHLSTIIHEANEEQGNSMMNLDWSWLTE
IKK, sequence (Q9Y6K9 whole entry partner): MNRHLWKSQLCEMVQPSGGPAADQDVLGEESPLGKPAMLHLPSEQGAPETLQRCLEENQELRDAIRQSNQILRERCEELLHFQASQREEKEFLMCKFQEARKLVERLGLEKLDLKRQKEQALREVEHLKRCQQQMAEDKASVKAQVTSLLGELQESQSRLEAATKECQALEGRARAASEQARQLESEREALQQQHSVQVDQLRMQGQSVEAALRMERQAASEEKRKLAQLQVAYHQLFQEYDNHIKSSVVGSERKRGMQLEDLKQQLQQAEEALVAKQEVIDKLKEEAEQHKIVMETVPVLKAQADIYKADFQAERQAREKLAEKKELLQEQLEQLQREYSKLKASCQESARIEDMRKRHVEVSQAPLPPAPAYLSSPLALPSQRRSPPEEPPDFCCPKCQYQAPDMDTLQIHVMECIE
T2 sequence (O15111 whole entry): as the sequence (O15111 whole entry) above
T2 sequence (O14920 whole entry): as the sequence (O14920 whole entry) above
T2 sequence (Q9Y6K9 whole entry partner): as the sequence (Q9Y6K9 whole entry partner) above

Row | sensitivity of NF-κB activation through IKKβ(C179A) (IKKβ(C179A)) | effect on NIK-induced IKK activity (HA-IKKα) (IKKα) | effect on IKK activity after 15 minute exposure (IKK; 15-min exposure, TPA 15 minutes) | Compound | effect on IKK activity (IKK; 24 μM PGA1 2 hours, TNFα or TPA)
1 | insensitive | – | – | CCCCC/C=C/C=C1/C(=O)C=C[C@@H]1C/C=C\CCCC(=O)O [15dPGJ2, 15-deoxy-Δ^12-14-PGJ2] | –
2 | – | inhibited | partially inhibit | CCCCC[C@H](O)/C=C/[C@H]1C=CC(=O)C1CCCCCCC(=O)O (stereo partly shown) [PGA1, prostaglandin A1] | inhibit IKK activity; also recorded: inhibited

Reference: patent publication US6649654B1, “Methods for identifying and using IKK inhibitors” (The Regents of the University of California, priority 1999, dated 2003)
